Laboratory results reported in US20110112100A1, “Hepatitis C Virus Inhibitors” (priority 2009, published 2011).
Counter-ions that a name gives are not always drawn. Like-named read-outs stand apart in the source and are kept apart here.

Experiments:
1a-H77 replicon cells = assay: HCV 1a replicon inhibitory activity (Renilla luciferase); assay type: cell-based, hepatitis C virus; conditions: read-out: IC50 value (95% Confidence Intervals) pM Replicon 1A assay
Experimental: (§1) Test compounds were solubilised to 4 mM in 100% DMSO. Dilutions were made to the desired starting concentration in 100% DMSO and then 1 in 3 dilutions made, again in 100% DMSO. 0.5 μl of each sample was added to 384-well assay plates. White Lumitrac (Greiner) plates were used for the 1a and 1b replicon assays and black, clear bottomed (Greiner) plates were used for the WST-1 cytotoxity assay.
1a-H77 replicon cells (licensed from Apath LLC) were resuspended to a concentration of 1.4×10^5 cells/ml by addition of pre-warmed assay medium (Dulbecco's Modified Eagle's Medium (DMEM)+10% fetal calf serum (FCS)). 50 μl of this suspension was added to each well of a 384-well assay plate (Lumitrac, Greiner), already containing 0.5 μl of test compound.
All plates were covered with gas permeable seals and incubated at 37° C., 5% CO2 for 48 hours. After 48 hours, the assay plate was removed from the incubator and left to cool to room temperature for 15 to 30 mins. Medium was removed from the wells and 5 μl 1× lysis buffer (from Promega's Renilla Luciferase assay kit, E2820) was added to each well. The plate was incubated at room temperature for 15 mins then 15 μl 1×Assay Substrate (from the same kit) was added to each well. Luminescence was read immediately using an EnVision (Perkin Elmer) plate reader. The half maximal effective concentration (1050) values were calculated by constructing log concentration-response curves for each compound.

1b (con1) replicon cells = assay: HCV 1b replicon inhibitory activity (luciferase, Britelite Plus); assay type: cell-based, hepatitis C virus; conditions: read-out: IC50 value (95% Confidence Intervals) pM Replicon 1B assay
Experimental: as §1
1b (con1) replicon cells (pFK1389lucubineo/NS3-3′/ET/9B, licensed from Ralf Bartenschlager, University of Heidelberg) were resuspended to a concentration of 1.4×10^5 cells/ml by addition of pre-warmed medium (DMEM+10% FCS). 50 μl of this suspension was added to each well of a 384-well assay plate (Lumitrac, Greiner) already containing 0.5 μl of test compound.
All plates were covered with gas permeable seals and incubated at 37° C., 5% CO2 for 48 hours. After 48 hours, the plate was removed from the incubator and left to cool to room temperature for 15-30 mins. 35 ul of reconstituted Lyophilised Britelite Plus Substrate (PerkinElmer, 6016767) to medium was added to each well. Luminescence was read after 1 min but before 15 mins on an EnVision (Perkin Elmer) plate reader. The half maximal effective concentration (1050) values were calculated by constructing log concentration-response curves for each compound.

[1] = Hepatitis C virus, geometric mean, 95% confidence intervals in parentheses, 48 hours, medium with 10% FCS
[2] = geometric mean, 95% confidence intervals in parentheses, 48 hours, medium with 10% FCS

Row | SMILES | IC50 (1a-H77 replicon cells; Hepatitis C virus, 48 h) | IC50 (1b (con1) replicon cells; Hepatitis C virus, 48 h) | IC50 (1a-H77 replicon cells; [1]) | IC50 (1b (con1) replicon cells; [1]) | other results
1 | COC(=O)NCC(=O)N1CCC[C@H]1c1ncc(-c2ccc3nc(-c4ccc(-c5c[nH]c([C@@H]6CCCN6C(=O)[C@@H](NC(=O)OC)C(C)C)n5)cc4)cnc3c2)[nH]1 [Example 65, Methyl {2-[(2S)-2-[5-[2-(4-{2-[(2S)-1-{(2S)-2-[(methoxycarbonyl)amino]-3-methylbutanoyl}pyrrolidin-2-yl]-1H-imidazol-4-yl}phenyl)quinoxalin-6-yl]-1H-imidazol-2-yl}pyrrolidin-1-yl]-2-oxoethyl)carbamate trifluoroacetic acid salt] | 700 pM | 54.5 pM | – | – | –
2 | COC(=O)N[C@H](C(=O)N1CCC[C@H]1c1ncc(-c2ccc(-c3cnc4cc(-c5cnc([C@@H]6CCCN6C(=O)[C@@H](NC(=O)OC)C(C)C)[nH]5)ccc4n3)cc2)[nH]1)C(C)C [Example 4, Methyl {(2S)-1-[(2S)-2-{5-[4-(6-{2-[(2S)-1-{(2S)-2-[(methoxycarbonyl)amino]-3-methylbutanoyl}pyrrolidin-2-yl]-1H-imidazol-5-yl}quinoxalin-2-yl)phenyl]-1H-imidazol-2-yl}pyrrolidin-1-yl]-3-methyl-1-oxobutan-2-yl}carbamate] | – | – | 17.4 pM | 7.7 pM | –
3 | COC(=O)N[C@H](C(=O)N1CCC[C@H]1c1nc(-c2ccc(-c3nc4ccc(-c5c[nH]c([C@@H]6CCCN6C(=O)[C@@H](NC(=O)OC)C(C)C)n5)cc4nc3OC)cc2)c[nH]1)C(C)C [Example 17, Methyl {(2S)-1-[(2S)-2-{4-[4-(3-methoxy-6-{2-[(2S)-1-{(2S)-2-[(methoxycarbonyl)amino]-3-methylbutanoyl}pyrrolidin-2-yl]-1H-imidazol-4-yl}quinoxalin-2-yl)phenyl]-1H-imidazol-2-yl}pyrrolidin-1-yl]-3-methyl-1-oxobutan-2-yl}carbamate] | – | – | 560 pM | 22.3 pM | –
4 | COC(=O)N[C@H](C(=O)N1CCC[C@H]1c1nc(-c2ccc3cc(-c4ccc(-c5cnc([C@@H]6CCCN6C(=O)[C@@H](NC(=O)OC)C(C)C)[nH]5)cc4)ccc3n2)c[nH]1)C(C)C [Example 13, Methyl {(2S)-1-[(2S)-2-{5-[4-(2-{2-[(2S)-1-{(2S)-2-[(methoxycarbonyl)amino]-3-methyl-butanoyl}pyrrolidin-2-yl]-1H-imidazol-4-yl}quinolin-6-yl)phenyl]-1H-imidazol-2-yl}pyrrolidin-1-yl]-3-methyl-1-oxobutan-2-yl}carbamate] | – | – | 78.1 pM | 12 pM | –
5 | COC(=O)N[C@H](C(=O)N1CCC[C@H]1c1ncc(-c2cnc(-c3ccc4cc(-c5cnc([C@@H]6CCCN6C(=O)[C@@H](NC(=O)OC)C(C)C)[nH]5)ccc4c3)nc2)[nH]1)C(C)C [Example 7, Methyl {(2S)-1-[(2S)-2-{5-[6-(5-{2-[(2S)-1-{(2S)-2-[(methoxycarbonyl)amino]-3-methyl-butanoyl}pyrrolidin-2-yl]-1H-imidazol-5-yl}pyrimidin-2-yl)naphthalen-2-yl]1H-imidazol-2-yl}pyrrolidin-1-yl]-3-methyl-1-oxobutan-2-yl}carbamate] | – | – | 68.4 pM | 21.4 pM | –
6 | COC(=O)N[C@H](C(=O)N1CCC[C@H]1c1nc(-c2ccc(-c3cnc4cc(-c5cnc([C@@H]6CCCN6C(=O)[C@@H](Cc6c[nH]c7ccccc67)NC(=O)OC)[nH]5)ccc4n3)cc2)c[nH]1)C(C)C [Example 82, Methyl {(2S)-1-[(2S)-2-{4-[4-(6-{2-[(2S)-1-{(2R)-3-(1H-indol-3-yl)-2-[(methoxycarbonyl)amino]propanoyl}pyrrolidin-2-yl]-1H-imidazol-5-yl}quinoxalin-2-yl)phenyl]-1H-imidazol-2-yl}pyrrolidin-1-yl]-3-methyl-1-oxobutan-2-yl}carbamate trifluoroacetic acid salt] | 490 pM | 190 pM | – | – | –
7 | COC(=O)N[C@H](C(=O)N1CCC[C@H]1c1nc(-c2ccc(-c3cnc4cc(-c5cnc([C@@H]6CCCN6C(=O)[C@@H](Cc6ccccn6)NC(=O)OC)[nH]5)ccc4n3)cc2)c[nH]1)C(C)C [Example 83, Methyl {(2S)-1-[(2S)-2-(4-{4-[6-(2-{(2S)-1-[(2R)-2-[(methoxycarbonyl)amino]-3-(pyridin-2-yl)propanoyl]pyrrolidin-2-yl}-1H-imidazol-5-yl)quinoxalin-2-yl]phenyl}-1H-imidazol-2-yl)pyrrolidin-1-yl]-3-methyl-1-oxobutan-2-yl}carbamate trifluoroacetic acid salt] | 1030 pM | 53.4 pM | – | – | –
8 | CC[C@H](NC(=O)OC)C(=O)N1CCC[C@H]1c1ncc(-c2ccc3cc(-c4ccc(-c5cnc([C@@H]6CCCN6C(=O)[C@@H](NC(=O)OC)C(C)C)[nH]5)cc4)ccc3c2)[nH]1 [Example 26, Methyl {(2S)-1-[(2S)-2-{5-[4-(6-{2-[(2S)-1-{(2S)-2-[(methoxycarbonyl)amino]butanoyl}pyrrolidin-2-yl]-1H-imidazol-5-yl}naphthalen-2-yl)phenyl]-1H-imidazol-2-yl}pyrrolidin-1-yl]-3-methyl-1-oxobutan-2-yl}carbamate] | – | – | 64.1 pM | 1.92 pM | –
9 | CC[C@@H](NC(=O)OC)C(=O)N1CCC[C@H]1c1ncc(-c2ccc3nc(-c4ccc(-c5c[nH]c([C@@H]6CCCN6C(=O)[C@@H](NC(=O)OC)C(C)C)n5)cc4)cnc3c2)[nH]1 [Example 59, Methyl {(2S)-1-[(2S)-2-{4-[4-(6-{2-[(2S)-1-{(2R)-2-[(methoxycarbonyl)amino]butanoyl}pyrrolidin-2-yl]-1H-imidazol-5-yl}quinoxalin-2-yl)phenyl]-1H-imidazol-2-yl}pyrrolidin-1-yl]-3-methyl-1-oxobutan-2-yl} carbamate trifluoroacetic acid salt] | – | – | – | – | IC50 (1a-H77 replicon cells; [2]): 2390 pM; IC50 (1b (con1) replicon cells; [2]): 97.5 pM
10 | COC(=O)N[C@H](C(=O)N1CCC[C@H]1c1nc(-c2cnc(-c3cc4ccc(-c5cnc([C@@H]6CCCN6C(=O)[C@@H](NC(=O)OC)C(C)C)[nH]5)cc4cn3)nc2)c[nH]1)C(C)C [Example 22, Methyl {(2S)-1-[(2S)-2-{4-[2-(7-{2-[(2S)-1-{(2S)-2-[(methoxycarbonyl)amino]-3-methylbutanoyl}pyrrolidin-2-yl]-1H-imidazol-5-yl}isoquinolin-3-yl)pyrimidin-5-yl]-1H-imidazol-2-yl}pyrrolidin-1-yl]-3-methyl-1-oxobutan-2-yl}carbamate] | – | – | 2190 pM | 152 pM | –
11 | COC(=O)N[C@H](C(=O)N1CCC[C@H]1c1nc(-c2ccc(-c3cnc4cc(-c5cnc([C@@H]6CCCN6C(=O)[C@@H](C)NC(=O)OC)[nH]5)ccc4n3)cc2)c[nH]1)C(C)C [Example 53, Methyl {(2S)-1-[(2S)-2-(4-{4-[6-(2-{(2S)-1-[N-(methoxycarbonyl)-D-alanyl]pyrrolidin-2-yl}-1H-imidazol-5-yl)quinoxalin-2-yl]phenyl}-1H-imidazol-2-yl)pyrrolidin-1-yl]-3-methyl-1-oxobutan-2-yl} carbamate trifluoroacetic acid salt] | – | – | – | – | IC50 (1a-H77 replicon cells; [2]): 646 pM; IC50 (1b (con1) replicon cells; [2]): 21.1 pM
12 | COC(=O)N[C@H](C(=O)N1CCC[C@H]1c1nc(-c2ccc(-c3cnc4cc(-c5cnc([C@@H]6CCCN6C(=O)CNC(=O)CNC(C)=O)[nH]5)ccc4n3)cc2)c[nH]1)C(C)C [Example 36, Methyl {(2S)-1-[(2S)-2-{4-[4-(6-{2-[(2S)-1-(N-acetylglycylglycyl)pyrrolidin-2-yl]-1H-imidazol-5-yl}quinoxalin-2-yl)phenyl]-1H-imidazol-2-yl}pyrrolidin-1-yl]-3-methyl-1-oxobutan-2-yl}carbamate trifluoroacetic acid salt] | 29800 pM | 1740 pM | – | – | –
13 | COC(=O)N[C@@H](CO)C(=O)N1CCC[C@H]1c1ncc(-c2ccc3nc(-c4ccc(-c5c[nH]c([C@@H]6CCCN6C(=O)[C@@H](NC(=O)OC)C(C)C)n5)cc4)cnc3c2)[nH]1 [Example 64, Methyl {(2S)-1-[(2S)-2-{4-[4-(6-{2-[(2S)-1-{(2S)-3-hydroxy-2-[(methoxycarbonyl)amino]propanoyl}pyrrolidin-2-yl]-1H-imidazol-5-yl}quinoxalin-2-yl)phenyl]-1H-imidazol-2-yl}pyrrolidin-1-yl]-3-methyl-1-oxobutan-2-yl}carbamate trifluoroacetic acid salt] | 44.9 pM | 42 pM | – | – | –
